Patent US20210112813A1, “HERBICIDAL COMPOSITION AND USE THEREOF” (NANTONG JIANGSHAN AGROCHEMICAL & CHEMICALS CO., LTD., priority 2019, published 2021)

Legend:
Assay type in all cases: in vivo
[1] = tested on: Bristlegrass; assay: Example 12 indoor pot experiment, stem and leaf spray, visual control effect 30 days after treatment, Gowing method
Experimental: (§1) The combined effect of the composition on the weeds was clarified by the indoor pot experiment.
(§2) The weed cultivation and test material cultivation method was as follows: quantitative weed seeds abutilon and bristlegrass were respectively sown in a paper cup filled with nutrient soil with a diameter of 7 cm, and then cultivated in the greenhouse after covering the soil, suppressing and watering. The stem and leaf spray treatment was performed when the grass weeds grew to 5-7 leaf stage, and broad-leaved weeds grew to 6-8 leaf stage; the tests were repeated for 3 times. the treatment and drug solution naturally dried, the weeds were placed in the greenhouse to be managed according to conventional methods. According to the suppression or death of the weeds, a visual control effect investigation was conducted 30 days after the treatment.
(§3) The application adopted the Gowing method to evaluate the combined effect of the proposed composition.
(§4) X—Weed control effect when the amount of herbicide component A is P;
(§5) Y—Weed control effect when the amount of herbicide component B is Q;
(§6) E0—Theoretical control effect when the amount of herbicide component A is […];
(§7) E—The measured control effect after the herbicide component A and the herbicide component B are mixed according to the above ratio.
(§8) When E−E0>10%, it is synergism; when E−E0<−10%, it is antagonism; when E−E0 value is between ±10%, it is addition.

[2] = tested on: Abutilon; assay: as above
Experimental: as §1, §2, §3, §4, §5, §6, §7, §8

[3] = tested on: Abutilon; assay: Example 15 indoor pot planting, death rate / herbicidal speed, weeds in 6-leaf stage
Experimental: (§9) The death rate of weeds after application of the herbicidal composition of the present application was measured and compared with the herbicidal rate when a single component was used. The test used the method of indoor pot planting. At the time of treatment, abutilon and barnyardgrass were in 6-leaf stage.

[4] = tested on: Echinochloacrusgalli; assay: as above
Experimental: as §9

[5] = tested on: Horseweed herb (collected from Shenyang, Liaoning); assay: Example 13 combined effect on weeds, Gowing method
Experimental: as §2, §3, §4, §5, §6, §7, §8
(§10) The test targets were horseweed herb collected from Shenyang, Liaoning and goosegrass collected from Zhengzhou, Henan.

[6] = tested on: goosegrass (collected from Zhengzhou, Henan); assay: Example 13 combined effect on weeds, Gowing method
Experimental: as §2, §3, §4, §5, §6, §7, §8, §10

[7] = Example 12 Table 1, dose 37.5 ga.i./hm^2
[8] = Example 12 Table 1, dose 75 ga.i./hm^2
[9] = Example 12 Table 1, dose 150 ga.i./hm^2
[10] = Example 12 Table 1, dose 300 ga.i./hm^2
[11] = Table 11, 7 days after treatment, dose 50 ga.i./hm^2
[12] = Table 11, 7 days after treatment, dose 100 ga.i./hm^2
[13] = Table 11, 7 days after treatment, dose 200 ga.i./hm^2
[14] = Table 11, 7 days after treatment, dose 400 ga.i./hm^2
[15] = Table 11, 15 days after treatment, dose 50 ga.i./hm^2
[16] = Table 11, 15 days after treatment, dose 100 ga.i./hm^2
[17] = Table 11, 15 days after treatment, dose 200 ga.i./hm^2
[18] = Table 11, 15 days after treatment, dose 400 ga.i./hm^2
[19] = Table 11, 30 days after treatment, dose 50 ga.i./hm^2
[20] = Table 11, 30 days after treatment, dose 100 ga.i./hm^2
[21] = Table 11, 30 days after treatment, dose 200 ga.i./hm^2
[22] = Table 11, 30 days after treatment, dose 400 ga.i./hm^2
[23] = Example 13 Table 2, dose 37.5 ga.i./hm^2
[24] = Example 13 Table 2, dose 75 ga.i./hm^2
[25] = Example 13 Table 2, dose 150 ga.i./hm^2
[26] = Example 13 Table 2, dose 300 ga.i./hm^2

## CC(C)N.O=C(O)CNCP(=O)(O)O [Glyphosate isopropylamine]
[1]; [7]
  Measured value E: 0%
[1]; [8]
  Measured value E: 15%
[1]; [9]
  Measured value E: 30%
[1]; [10]
  Measured value E: 45%
[2]; [7]
  Measured value E: 10%
[2]; [8]
  Measured value E: 20%
[2]; [9]
  Measured value E: 50%
[2]; [10]
  Measured value E: 65%
[3]; [11]
  Control effect (visual observation %): 5.8%
[3]; [12]
  Control effect (visual observation %): 16.2%
[3]; [13]
  Control effect (visual observation %): 24.6%
[3]; [14]
  Control effect (visual observation %): 43.5%
[3]; [15]
  Control effect (visual observation %): 9.0%
[3]; [16]
  Control effect (visual observation %): 26.2%
[3]; [17]
  Control effect (visual observation %): 38.3%
[3]; [18]
  Control effect (visual observation %): 38.0%
[3]; [19]
  Control effect (visual observation %): 6.8%
[3]; [20]
  Control effect (visual observation %): 20.0%
[3]; [21]
  Control effect (visual observation %): 62.6%
[3]; [22]
  Control effect (visual observation %): 79.9%
[4]; [11]
  Control effect (visual observation %): 4.1%
[4]; [12]
  Control effect (visual observation %): 36.9%
[4]; [13]
  Control effect (visual observation %): 62.2%
[4]; [14]
  Control effect (visual observation %): 66.7%
[4]; [15]
  Control effect (visual observation %): 34.3%
[4]; [16]
  Control effect (visual observation %): 48.7%
[4]; [17]
  Control effect (visual observation %): 63.9%
[4]; [18]
  Control effect (visual observation %): 64.5%
[4]; [19]
  Control effect (visual observation %): 29.6%
[4]; [20]
  Control effect (visual observation %): 68.5%
[4]; [21]
  Control effect (visual observation %): 100%
[4]; [22]
  Control effect (visual observation %): 99.0%
[5]; [23]
  Measured value E: 25%
[5]; [24]
  Measured value E: 35%
[5]; [25]
  Measured value E: 65%
[5]; [26]
  Measured value E: 70%
[6]; [23]
  Measured value E: 5%
[6]; [24]
  Measured value E: 25%
[6]; [25]
  Measured value E: 50%
[6]; [26]
  Measured value E: 65%
